Data taken from patent publication US12391670B2, “Functionalized aminotriazines” (LEADXPRO AG, priority 2018, dated 2025).
Like-named read-outs stand apart in the source and are kept apart here.

Experiments:
human A1 receptor = human A1 receptor (Homo sapiens (Human), UniProt P30542); test: Radioligand binding competition assay, [3H]-DPCPX, membranes from CHO-K1 cells transfected with human A1 receptor
Description: (§1) For all four adenosine receptors (A1, A2A, A2B and A3) filtration binding assay was performed. Radioligand binding competition assay was done in duplicates in the wells of a 96-well plate (Master Block, Greiner, 786201) containing binding buffer, receptor membrane extracts, a fixed concentration of tracer and test compound at increasing concentrations. In order to eliminate effect of buffer components, binding buffer was the same for all four receptors and contained: 50 mM Tris-HCl pH 7.4, 5 mM MgCl2, 1 mM EDTA, 150 mM NaCl, 0.1% Na-azide, and 5 U/ml adenosine-deaminase. Nonspecific binding was determined by co-incubation with 200-fold excess of cold competitor. In all radioligand binding experiments, the samples were incubated in a final volume of 0.1 ml for 60 minutes at 25° C. and then filtered over Unifilter plates (Perkin Elmer) pre-treated for 2 hours to limit tracer non-specific binding. Filters were washed five times with 0.5 ml of ice-cold washing buffer (50 mM Tris-HCl pH 7.4, 5 mM MgCl2, 1 mM EDTA) and 50 μl of Microscint 20 (Perkin Elmer) were added to each filter. The plates are incubated 15 min at room temperature on an orbital shaker and then counted with a TopCount™ for 1 min/well.
For A1 receptor the assay was performed with [^3H]-DPCPX and membranes from CHO-K1 cells transfected with human A1 receptor (Euroscreen FAST-00B).

human A3 receptor = human A3 receptor (Homo sapiens (Human), UniProt P0DMS8); test: Radioligand binding competition assay, [125I]-MECA, membranes from CHO-K1 cells transfected with human A3 receptor
Description: as §1
For A3, the assay was carried out with [^125I]-MECA and membranes from CHO-K1 cells transfected with human A3 receptor (Euroscreen FAST-004B).

[1] = molecular target: human thermostabilised A2B receptor; test: Wave Guided Interferometry (WGI); type: binding; conditions: 1:1 interaction model
Description: Biophysical Assays: A2B and A2A receptors used for biophysical measurements were produced using baculovirus mediated expression in insect cells. Expression constructs for both receptors contained point mutations that increased receptor thermal stability. Thermostabilised A2B and A2A receptors were solubilized using mild detergents (DDM and DM, respectively) and purified by standard purification methods. A2B receptor was purified in the buffer containing: 40 mM Tris-HCl pH 7.4, 200 mM NaCl, 0.05% DDM, and 0.005% CHS. A2A receptor was purified in the buffer containing: 40 mM Tris-HCl pH 7.4, 200 mM NaCl, 0.15% DM, and 0.002% CHS.
WGI experiments with A2B receptor were performed using the Wave delta instrument (Creoptix AG), a label free surface biosensor. Purified A2B protein was immobilized on 4PCP-N chips (Creoptix, quasi planar NTA functionalized polycarboxylate surface) at typical levels between […]. Running buffer was 25 mM Tris-HCl pH 7.5, 350 mM NaCl, 0.1% DDM, and 2% DMSO. The procedure started with 40 start-up cycles in order to equilibrate and stabilize the surface. Once start-up cycles were performed, different concentrations of compounds (diluted in running buffer, and adjusted depending on the kinetic characteristics) were injected in a multi cycle kinetic mode with typical association time of 120 s and dissociation time of 240 s. A DMSO calibration (typically 5 concentrations between 1 and 3% DMSO) was performed for every experiment in order to calibrate DMSO levels as well as to estimate the missing volume taken by the protein on the chip. Data were evaluated with Creoptix Wave software (Creoptix AG). All final signals are double referenced with injections of same compound concentrations on a reference channel and with buffer injections on the active channel (where protein is immobilized) and fitted with a 1:1 interaction model in order to obtain KD values.

human A2B receptor [2] = molecular target: T1, human A2B receptor (Homo sapiens (Human), UniProt P29275); test: Radioligand binding competition assay, [3H]-DPCPX, membranes from HEK293 cells transfected with human A2B receptor
Description: as §1
For A2B, the assay was carried with [^3H]-DPCPX and membranes prepared from HEK293 cells transfected with human A2B receptor (Euroscreen FAST-003B).

human A2A receptor = human A2A receptor (Homo sapiens (Human), UniProt P29274); test: Radioligand binding competition assay, [3H]-NECA, membranes from HEK293 cells transfected with human A2A receptor; conditions: for Human A2A Receptor pKi / IC50: radioligand binding
Description: as §1
For A2A receptor the assay was performed with [^3H]-NECA and membranes from HEK293 cells transfected with human A2A receptor (Euroscreen FAST-002B).

human A2B receptor [3] = molecular target: T1, human A2B receptor; test: cAMP assay (b), HEK293 cells expressing recombinant human A2B receptor; type: cell-based; conditions: reference agonist at EC80, read-out: cAMP pIC50 (converted)
Description: (§2) Two assays have been employed, one using HEK293 with A2B receptors endogenously expressed (named cAMP assay (a) in the following) and a second one using HEK293 cells impressing recombinant human A2B receptors (named cAMP assay (b) in the following)
Dose response curves were performed in parallel with the reference compounds. 12 μl of cells were mixed with 6 μl of the test compound at increasing concentrations and then incubated 10 min. Thereafter 6 μl of the reference agonist was added at a final concentration corresponding to the historical EC80. The plates were then incubated for 30 min at room temperature. After addition of the lysis buffer and 1 hour incubation, cAMP concentrations were estimated, according to the manufacturer specification, with the HTRF kit.

[4] = molecular target: A2B receptors endogenously expressed in HEK293 cells (Homo sapiens (Human), UniProt P29275); test: cAMP assay (a), HEK293 cells with A2B receptors endogenously expressed; type: cell-based; conditions: stimulated with 5 μM NECA
Description: as §2
Real-time cAMP-assays in live cells were performed in HEK293 cells stably expressing the EPAC-sensor (I. Vedel, et al., 2015, J. Biomol. Screen. 20, 849-857).
In order to test for cAMP inhibition by preferred compounds of formula I and antagonists, respectively, from this invention, endogenous A2A and A2B expression in above cell lines was exploited. To run the assay, cells were incubated in 80 μl assay buffer for 15 minutes at room temperature. The assay buffer was composed of Hanks Balanced Salt Solution (Gibco) with 20 mM HEPES, pH 7.4 and […] adenosine-deaminase. All cAMP assays were run at room temperature using a PHERAstar FSX plate reader. The FRET donor (mCerulean) was excited at 430 nm. Fluorescence emission was measured at 480 nm and 530 nm for 65 minutes (cycle time 1.45 min). Prior to stimulation fluorescence was measured for 10 min (baseline). Subsequently cells were stimulated with 5 μM NECA (5′-(N-Ethylcarboxamido)adenosine; Tocris, Cat.-No:35920-39-9). Sharply 10.15 min after stimulation the compounds were added at increasing concentrations (between 0 and 200 μM) and fluorescence was recorded for 40 min. Each compound concentration was measured in duplicates.

[5] = read-out: cAMP pIC50 (converted)

Sequence of human A3 receptor (P0DMS8 whole entry): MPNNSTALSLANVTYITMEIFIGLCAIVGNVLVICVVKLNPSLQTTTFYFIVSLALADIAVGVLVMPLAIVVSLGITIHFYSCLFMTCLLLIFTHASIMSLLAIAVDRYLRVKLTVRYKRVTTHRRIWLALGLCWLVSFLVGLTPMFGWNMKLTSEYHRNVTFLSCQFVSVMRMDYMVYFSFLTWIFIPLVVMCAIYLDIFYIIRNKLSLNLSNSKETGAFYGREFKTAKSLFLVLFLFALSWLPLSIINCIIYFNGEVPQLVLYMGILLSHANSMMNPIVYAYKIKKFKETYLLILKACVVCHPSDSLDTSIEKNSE
Sequence of human A1 receptor (P30542 whole entry): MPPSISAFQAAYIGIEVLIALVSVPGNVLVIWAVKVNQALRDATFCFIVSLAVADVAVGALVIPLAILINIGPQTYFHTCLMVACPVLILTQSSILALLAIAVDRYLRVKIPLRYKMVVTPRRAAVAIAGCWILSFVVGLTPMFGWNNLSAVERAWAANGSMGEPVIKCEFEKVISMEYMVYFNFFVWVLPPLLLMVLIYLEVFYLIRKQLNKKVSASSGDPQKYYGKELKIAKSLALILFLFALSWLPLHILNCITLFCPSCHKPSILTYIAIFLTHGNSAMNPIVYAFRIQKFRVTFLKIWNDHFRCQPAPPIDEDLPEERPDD
Sequence of A2B receptors endogenously expressed in HEK293 cells (P29275 whole entry): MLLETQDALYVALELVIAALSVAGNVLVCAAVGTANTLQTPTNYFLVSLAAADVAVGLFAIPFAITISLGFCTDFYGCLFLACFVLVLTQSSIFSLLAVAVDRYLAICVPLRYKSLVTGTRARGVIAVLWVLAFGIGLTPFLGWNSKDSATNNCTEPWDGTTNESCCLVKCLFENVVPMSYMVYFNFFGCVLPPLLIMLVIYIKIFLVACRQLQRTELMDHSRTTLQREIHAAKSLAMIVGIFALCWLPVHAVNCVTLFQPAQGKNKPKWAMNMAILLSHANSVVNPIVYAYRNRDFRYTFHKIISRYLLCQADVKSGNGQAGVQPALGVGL
T1 sequence (P29275 whole entry): as above
Sequence of human A2A receptor (P29274 whole entry): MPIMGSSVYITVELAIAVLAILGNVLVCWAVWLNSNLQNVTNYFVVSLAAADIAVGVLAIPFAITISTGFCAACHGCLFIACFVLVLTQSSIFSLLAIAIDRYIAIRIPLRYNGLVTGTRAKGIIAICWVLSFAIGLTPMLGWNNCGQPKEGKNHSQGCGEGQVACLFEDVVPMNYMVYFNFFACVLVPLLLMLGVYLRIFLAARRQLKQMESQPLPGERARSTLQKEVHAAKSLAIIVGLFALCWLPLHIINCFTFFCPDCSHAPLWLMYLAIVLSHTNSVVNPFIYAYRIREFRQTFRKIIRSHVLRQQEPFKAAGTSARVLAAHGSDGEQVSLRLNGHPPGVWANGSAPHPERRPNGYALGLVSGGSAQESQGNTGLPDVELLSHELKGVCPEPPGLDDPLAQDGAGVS

Row | Human A1 Receptor pKi (human A1 receptor) | IC50 (human A1 receptor) | Human A3 Receptor pKi (human A3 receptor) | IC50 (human A3 receptor) | Kd [1] | Human A2B Receptor pKi (human A2B receptor [2]) | IC50 (human A2B receptor [2]) | inhibition at 50 µM (human A2A receptor) | Human A2A Receptor pKi (human A2A receptor) | IC50 (human A2A receptor) | IC50 (human A2B receptor [3]) | IC50 [4] | IC50 [4, 5] | Compound
1 | 5.73 | 3790 nM | 5.14 | 9520 nM | 100 nM | 6.84 | 160 nM | 48% | <4.70 |  |  |  |  | CNC(=O)Nc1nnc(-c2ccncc2F)c(-c2ccccc2F)n1 [Example 16, 1-(5-(2-fluorophenyl)-6-(3-fluoropyridin-4-yl)-1,2,4-triazin-3-yl)-3-methylurea]
2 | 6.23 | 1180 nM | 4.48 | 43500 nM | 120 nM | 6.82 | 170 nM |  | 4.4 | 39400 nM | 501 nM |  |  | Cc1n[nH]c(Nc2nnc(-c3ccncc3F)c(-c3ccccc3F)n2)n1 [Example 15, 5-(2-fluorophenyl)-6-(3-fluoropyridin-4-yl)-N-(3-methyl-1H-1,2,4-triazol-5-yl)-1,2,4-triazin-3-amine]
3 | 5.96 | 2200 nM | 4.68 | 27100 nM | 240 nM | 6.93 | 460 nM | 54% | <4.70 |  |  |  |  | Cc1cc(Nc2nnc(-c3ccncc3F)c(-c3ccccc3F)n2)[nH]n1 [Example 14, 5-(2-fluorophenyl)-6-(3-fluoropyridin-4-yl)-N-(3-methyl-1H-pyrazol-5-yl)-1,2,4-triazin-3-amine]
4 | 6.26 |  | 6.42 |  |  | 7.65 |  |  | 5.84 |  | 50.1 nM |  |  | CC(C)(O)c1ccc(Nc2nnc(-c3ccncc3F)c(-c3ccccc3F)n2)cn1 [Example 38, 2-(5-{[5-(2-fluorophenyl)-6-(3-fluoropyridin-4-yl)-1,2,4-triazin-3-yl]amino}pyridin-2-yl)propan-2-ol]

More lines, now with the values behind:

Row | Compound | Human A1 Receptor pKi (human A1 receptor) | IC50 (human A1 receptor) | Human A3 Receptor pKi (human A3 receptor) | IC50 (human A3 receptor) | Kd [1] | Human A2B Receptor pKi (human A2B receptor [2]) | IC50 (human A2B receptor [2]) | inhibition at 50 µM (human A2A receptor) | Human A2A Receptor pKi (human A2A receptor) | IC50 (human A2A receptor) | IC50 (human A2B receptor [3]) | IC50 [4] | IC50 [4, 5]
5 | Fc1ccccc1-c1nc(Nc2cccnc2)nnc1-c1ccnc(C(F)(F)F)c1 [Example 8, 5-(2-fluorophenyl)-N-(pyridin-3-yl)-6-(2-(trifluoromethyl)pyridin-4-yl)-1,2,4-triazin-3-amine] |  |  |  |  | 130 nM |  |  |  |  |  |  |  | 
6 | Fc1cnccc1-c1nnc(Nc2nc(Cl)cs2)nc1-c1cccnc1 [Example 4, 4-chloro-N-(6-(3-fluoropyridin-4-yl)-5-(pyridin-3-yl)-1,2,4-triazin-3-yl)thiazol-2-amine] |  |  |  |  | 1000 nM | 6.5 | 360 nM |  | 5.48 | 3280 nM |  |  | 
7 | Cc1nsc(Nc2nnc(-c3ccnc(C(F)(F)F)c3)c(-c3ccccc3F)n2)n1 [Example 11, N-(5-(2-fluorophenyl)-6-(2-(trifluoromethyl)pyridin-4-yl)-1,2,4-triazin-3-yl)-3-methyl-1,2,4-thiadiazol-5-amine] |  |  |  |  | 470 nM |  |  |  |  |  |  |  | 
8 | Fc1cnccc1-c1nnc(Nc2cccnc2)nc1-c1cccnc1 [Example 1, 6-(3-fluoropyridin-4-yl)-N,5-di(pyridin-3-yl)-1,2,4-triazin-3-amine] | 5.02 | 19000 nM |  |  | 500 nM | 6.55 | 320 nM |  | 4.73 | 18500 nM |  | 400 nM | 398 nM
9 | Fc1cccc(Nc2nnc(-c3ccncc3F)c(-c3cccnc3)n2)c1 [Example 2, N-(3-fluorophenyl)-6-(3-fluoropyridin-4-yl)-5-(pyridin-3-yl)-1,2,4-triazin-3-amine] | 5.43 | 7440 nM |  |  | 1000 nM | 6.99 | 120 nM |  | 4.9 | 12700 nM |  | 630 nM | 631 nM
